Earlier results in patent publication US12343427B1, “Stable intravenous diltiazem hydrochloride formulation and use thereof” (Nivagen Pharmaceuticals, Inc., priority 2024, dated 2025).

Target: CYP2D6 (Homo sapiens, UniProt P10635)
Settings: Molden E, et al. Drug Metab Dispos. 30: 1-3 (2002)

Chain of CYP2D6 (P10635 whole entry): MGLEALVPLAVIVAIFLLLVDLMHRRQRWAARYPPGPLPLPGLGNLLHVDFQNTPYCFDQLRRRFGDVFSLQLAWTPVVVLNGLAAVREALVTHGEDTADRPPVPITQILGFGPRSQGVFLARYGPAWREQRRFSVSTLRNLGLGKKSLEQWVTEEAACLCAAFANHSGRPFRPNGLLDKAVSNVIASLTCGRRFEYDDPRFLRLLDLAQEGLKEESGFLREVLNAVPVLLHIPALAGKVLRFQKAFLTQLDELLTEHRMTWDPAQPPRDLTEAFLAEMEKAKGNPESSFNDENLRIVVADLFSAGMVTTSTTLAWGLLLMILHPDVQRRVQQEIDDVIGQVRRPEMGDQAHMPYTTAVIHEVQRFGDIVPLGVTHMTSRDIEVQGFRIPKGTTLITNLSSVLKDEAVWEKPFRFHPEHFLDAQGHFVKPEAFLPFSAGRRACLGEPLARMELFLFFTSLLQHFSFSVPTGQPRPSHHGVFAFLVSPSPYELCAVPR

COc1ccc([C@@H]2Sc3ccccc3N(CCN(C)C)C(=O)[C@@H]2O)cc1 [Desacetyl-diltiazem]
affinity to CYP2D6 compared with CYP3A4: severalfold higher affinity to CYP2D6 compared with CYP3A4
